US20250129012A1, “ANTI-INFLAMMATORY AND ANALGESIC COMPOUNDS AND USE THEREOF” (JIANGSU ATOM BIOSCIENCE AND PHARMACEUTICAL CO., LTD., priority 2021, published 2025)
Like-named read-outs stand apart in the source and are kept apart here. Marks after values point to notes of the source that are not given here.

Key:
[1] = In vivo pharmacokinetics in SD rats
Method: Compound stock solution preparation: an appropriate amount of solid powder of the compounds were weighed separately, a certain amount of DMSO was added and 20 mg/mL of stock solution was obtained under vortex ultrasound.
Preparation of test compound for gavage: an appropriate amount of compound stock solution was taken by pipette, a certain amount of Solutol HS15 solution was added, the mixture was vortexed for 1 minute, then a certain amount of saline was added, and 1 mg/mL of solution was obtained after mixing well.
Preparation of test compounds for intravenous injection: an appropriate amount of compound stock solution was taken by pipette separately, a certain amount of Solutol HS15 solution was added, the mixture was vortexed for 1 minute, then a certain amount of physiological saline was added and a solution of 0.5 mg/mL was obtained after mixing well.
The animals were fasted overnight before administration by gavage, and food was given 4 hours after administration, during which they were free to drink. Two groups were set for each test compound, intravenous injection group and oral administration group, and the dose and mode of administration were shown in Table 12 below.
The blood samples were centrifuged at 4° C. for 5 min at 2,000 g to separate the plasma. The plasma samples were analyzed by LC/MS/MS to detect the concentration of each test compound in the plasma samples.
The parameters related to the […] were obtained by calculations with WinNonlin® Professional software.

[2] = test system: gouty arthritis in rats (urate crystals, left ankle joint); assay: Pharmacodynamics experiment A on gouty arthritis in rats: pain score; assay type: in vivo, SD rats; design: Pain score: scale not given here; details: 0.6 mg/kg gavage; for Pain versus model group, in words: time points after modeling, P<0.05 or P<0.01; for Pain score: Mean ± SEM
Method: (§1) Compounds 2, 17, 26 and 27 were prepared by grinding with 0.5% CMC-Na into a suspension of the corresponding concentration (0.06 mg/mL) for gavage before administration, and the volume of administration was 10 mL/kg. […] Before use, 0.5% CMC-Na was used for grinding and prepared into a suspension of the corresponding concentration (0.06 mg/mL) for gavage, and the volume of drug administered was 10 mL/kg.
(§2) Each group of subjects was prepared into a suspension of the corresponding concentration, and the administration volume was 10 mL/kg.
(§3) The crystalline arthritis model was prepared by intra-articular injection of urate crystals (40 mg/mL, in the left ankle joint of each rat). Different doses of the test drug were given separately by gavage administration. The day of administration was defined as day 1 of the experiment, and the drug was administered once a day for 10 consecutive days (pre-administration of the drug for 7 days prior to modeling, modeling on day 8, and continuation of the drug for 3 days). The experiment ended on day 10.
The pain level was scored using the flexion and extension joint pain test scoring method at the same time point.
(§4) The data obtained from the experiment were statistically analyzed using IBM SPSS Statistics 22.0. All measurements were expressed as Mean±S.E.M s. The data were analyzed using SPSS 22.0 statistical software and variance chi-square test was performed on the parameters.

[3] = test system: gouty arthritis in rats (urate crystals, left ankle joint); assay: Pharmacodynamics experiment A on gouty arthritis in rats: paw volume; assay type: in vivo, SD rats; details: for Paw volume versus model group, in words: time points after modeling; for Paw volume: Mean ± SEM
Method: as §1, §2, §3
Paw volume was measured before administration, before urate injection, and 2, 4, 8, 10, 24, and 48 h after injection.
as §4

[4] = test system: gouty arthritis in rats (urate crystals, left ankle joint); assay: Pharmacodynamics experiment A on gouty arthritis in rats: gait score; assay type: in vivo, SD rats; design: Gait Score: scale not given here; details: 0.6 mg/kg gavage; for Gait versus model group, in words: time points after modeling, P<0.05 or P<0.01; for Gait Score: Mean ± SEM
Method: as §1, §2, §3
The degree of lameness of the modeled joints was observed and scored at the same time point.
as §4

[5] = 2 h after modeling, 0.6 mg/kg gavage
[6] = 4 h after modeling, 0.6 mg/kg gavage
[7] = 8 h after modeling, 0.6 mg/kg gavage
[8] = 10 h after modeling, 0.6 mg/kg gavage
[9] = 24 h after modeling, 0.6 mg/kg gavage
[10] = 48 h after modeling, 0.6 mg/kg gavage
[11] = before modeling, 0.6 mg/kg gavage once a day
[12] = Sprague-Dawley, rat, in vivo, iv, 1 mg/kg
[13] = Sprague-Dawley, rat, in vivo, po, 10 mg/kg

SMILES	Pain versus model group, in words [2]	Pain score ([2]; 2 h after modeling)	Pain score ([2]; 4 h after modeling)	Pain score ([2]; 8 h after modeling)	Pain score ([2]; 10 h after modeling)	Pain score ([2]; 24 h after modeling)	Pain score ([2]; 48 h after modeling)	Pain score ([2]; before modeling)	Paw volume versus model group, in words ([3]; 0.6 mg/kg gavage)	Paw volume [3, 5]	Paw volume [3, 6]	Paw volume [3, 7]	Paw volume [3, 8]	Paw volume [3, 9] [cm^3]	Paw volume [3, 10]	Paw volume [3, 11] [cm^3]	Gait versus model group, in words [4]	Gait Score ([4]; 2 h after modeling)	Gait Score ([4]; 4 h after modeling)	Gait Score ([4]; 8 h after modeling)	further results
CNC(=O)c1ccc2c(cc1=O)[C@@H](NC(C)=O)CCc1cc3c(c(OC)c1-2)OCO3 [Compound 125, (S)-6-acetamido-13-methoxy-N-methyl-4-oxo-4,6,7,8-tetrahydroheptalen[1′,2′:4,5]benzo[1,2-d][1,3]dioxolane-3-carboxamide]	–	–	–	–	–	–	–	–	–	–	–	–	–	–	–	–	–	–	–	–	F ([1]; Gavage - 10 mg/kg, calculated by AUCINF): 93.0%; AUC(0-inf) ([1]; Sprague-Dawley, rat, in vivo, po, Gavage - 10 mg/kg, read-out: AUCINF): 5460 ng·h/mL; Cmax ([1]; Sprague-Dawley, rat, in vivo, po, Gavage - 10 mg/kg, read-out: Cmax): 4150 ng/mL; MRT inf ([1]; Sprague-Dawley, rat, in vivo, po, Gavage - 10 mg/kg, read-out: MRTINF): 108 min; Tmax ([1]; Sprague-Dawley, rat, in vivo, po, Gavage - 10 mg/kg, read-out: Tmax): 15 min; half-life ([1]; Sprague-Dawley, rat, in vivo, po, Gavage - 10 mg/kg, read-out: t1/2 (converted)): 200 min; AUC(0-inf) ([1]; Sprague-Dawley, rat, in vivo, Intravenous injection - 1 mg/kg, read-out: AUCINF): 587 ng·h/mL; clearance ([1]; Sprague-Dawley, rat, in vivo, Intravenous injection - 1 mg/kg, read-out: CL (converted)): 28.5 mL/min/kg; MRT inf ([1]; Sprague-Dawley, rat, in vivo, Intravenous injection - 1 mg/kg, read-out: MRTINF): 40.5 min; Vd ([1]; Sprague-Dawley, rat, in vivo, Intravenous injection - 1 mg/kg, read-out: VSS): 1.15 L/kg; half-life ([1]; Sprague-Dawley, rat, in vivo, Intravenous injection - 1 mg/kg, read-out: t1/2 (converted)): 71.4 min
COc1cc2c(c(OC)c1OC)-c1ccc(NS(C)(=O)=O)c(=O)cc1[C@@H](NC(C)=O)CC2 [Compound 2, (S)—N-(1,2,3-trimethoxy-10-methanesulfonylamino-9-oxo-5,6,7,9-tetrahydrobenzo[a]heptalen-7-yl)acetamide]	significantly improved pain at 2 h, 4 h, 8 h, 10 h, 24 h, and 48 h	2.70 ± 0.68	1.30 ± 0.52	3.30 ± 0.54	2.20 ± 0.68	1.30 ± 0.62	1.00 ± 0.67	0.00 ± 0.00	significantly reduce the paw volume at 2 h, 4 h, and 48 h	2.51 ± 0.06* cm^3	2.54 ± 0.04* cm^3	2.63 ± 0.06 cm^3	2.59 ± 0.07 cm^3	2.52 ± 0.08	2.35 ± 0.06* cm^3	2.18 ± 0.02	significantly improved the gait at 2 h, 8 h, 24 h, and 48 h	1.10 ± 0.10	1.10 ± 0.10	1.10 ± 0.10	Gait Score ([4]; 10 h after modeling): 1.20 ± 0.13; Gait Score ([4]; 24 h after modeling): 1.00 ± 0.00; Gait Score ([4]; 48 h after modeling): 1.00 ± 0.00; Gait Score ([4]; before modeling): 0.00 ± 0.00
[2H]C([2H])([2H])NC(=O)c1ccc2c(cc1=O)[C@@H](NC(C)=O)CCc1cc(OC)c(OC)c(OC)c1-2 [Compound 56, (S)-7-acetamido-1,2,3-trimethoxy-N-(trideuterio)methyl-9-oxo-5,6,7,9-tetrahydrobenzo[a]heptalen-10-carboxamide]	–	–	–	–	–	–	–	–	–	–	–	–	–	–	–	–	–	–	–	–	F ([1]; Sprague-Dawley, rat, in vivo, 10 mg/kg): 62.3%; AUC(0-inf) [1, 12]: 597 ng·h/mL; MRT inf [1, 12]: 34.9 min; Vd [1, 12]: 0.977 L/kg; clearance [1, 12]: 28.7 mL/min/kg; half-life [1, 12]: 35.4 min; AUC(0-inf) [1, 13]: 3720 ng·h/mL; Cmax [1, 13]: 1640 ng/mL; MRT inf [1, 13]: 132 min; Tmax [1, 13]: 25 min; half-life [1, 13]: 76.2 min
COc1cc2c(c(OC)c1OC)-c1ccc(=O)c(OC3CCOC3)cc1[C@@H](NC(C)=O)CC2 (stereo partly drawn) [Compound 27, (S)—N-(1,2,3-trimethoxy-10-oxo-9-[(tetrahydrofuran-3-yl)oxy]-5,6,7,10-tetrahydrobenzo[a]heptalen-7-yl)acetamide]	significantly improved gait at 2 h, 8 h, 10 h, 24 h, and 48 h	2.00 ± 0.67	2.80 ± 0.68	3.30 ± 0.47	2.50 ± 0.65	1.50 ± 0.60	1.00 ± 0.60	0.00 ± 0.00	significantly reduce the paw volume at 2 h, 4 h, 8 h, 10 h, and 48 h	2.51 ± 0.04** cm^3	2.54 ± 0.03* cm^3	2.57 ± 0.04* cm^3	2.55 ± 0.04* cm^3	2.50 ± 0.07	2.29 ± 0.04** cm^3	2.16 ± 0.04	significantly improved the gait at 2 h, 24 h, and 48 h	1.00 ± 0.00	1.10 ± 0.10	1.40 ± 0.22	Gait Score ([4]; 10 h after modeling): 1.20 ± 0.20; Gait Score ([4]; 24 h after modeling): 1.00 ± 0.00; Gait Score ([4]; 48 h after modeling): 1.00 ± 0.00; Gait Score ([4]; before modeling): 0.00 ± 0.00
